This is an account of results in patent US12304914B2, “Pyrazolo[3,4-d]pyrrolo[1,2-b]pyridazinyl compounds useful as IRAK4 inhibitors” (BRISTOL-MYERS SQUIBB COMPANY, priority 2019, dated 2025).

pIC50: −log10 of the molar value.

The test deals with IRAK4 (Homo sapiens (Human), UniProt Q9NWZ3). In words: IRAK4 Inhibition Assay. It is filed as biochemical. The settings on record: ATP 500 μM; FL-peptide 1.5 μM; IRAK4 0.6 nM; 60 min room temperature; Caliper LABCHIP 3000. The protocol: The assays were performed in U-bottom 384-well plates. The final assay volume was 30 μL prepared from 15 μL additions of enzyme and substrates (fluoresceinated peptide and ATP) and test compounds in assay buffer (20 mM HEPES pH 7.2, 10 mM MgCl2, 0.015% Brij 35 and 4 mM DTT). The reaction was initiated by the combination of IRAK4 with substrates and test compounds. The reaction mixture was incubated at room temperature for 60 min. and terminated by adding 45 μL of 35 mM EDTA to each sample. The reaction mixture was analyzed on the Caliper LABCHIP® 3000 (Caliper, Hopkinton, MA) by electrophoretic separation of the fluorescent substrate and phosphorylated product. Inhibition data were calculated by comparison to no enzyme control reactions for 100% inhibition and vehicle-only reactions for 0% inhibition. The final concentrations of reagents in the assays are ATP, 500 μM; FL-IPTSPITTTYFFFKKK peptide 1.5 μM; IRAK4, 0.6 nM; and DMSO, 1.6%.
Chain of IRAK4 (Q9NWZ3 whole entry): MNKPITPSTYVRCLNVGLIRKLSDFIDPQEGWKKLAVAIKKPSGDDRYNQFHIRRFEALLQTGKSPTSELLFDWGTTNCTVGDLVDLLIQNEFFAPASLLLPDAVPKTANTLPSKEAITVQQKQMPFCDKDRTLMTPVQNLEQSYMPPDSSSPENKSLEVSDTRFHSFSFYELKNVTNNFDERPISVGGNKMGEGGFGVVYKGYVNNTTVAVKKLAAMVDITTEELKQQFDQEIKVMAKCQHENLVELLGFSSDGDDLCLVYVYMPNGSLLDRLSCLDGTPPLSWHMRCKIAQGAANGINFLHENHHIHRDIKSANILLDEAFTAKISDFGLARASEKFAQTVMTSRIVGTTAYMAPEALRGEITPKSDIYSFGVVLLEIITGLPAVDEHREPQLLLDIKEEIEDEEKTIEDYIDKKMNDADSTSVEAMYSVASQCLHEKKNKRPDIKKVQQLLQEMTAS
For `CC(C)n1nc(NCC2CCNCC2)c2cnn3cc(-c4cccnc4)cc3c21` [Example 1, 1-isopropyl-N-(piperidin-4-ylmethyl)-8-(pyridin-3-yl)-1H-pyrazolo[3,4-d]pyrrolo[1,2-b] pyridazin-3-amine], the pIC50 (in general, the IC50 on a negative log10 scale, so that one unit is a factor of ten) was 6.05.

Consider `COC(=O)N1CCC(CNc2nn(C(C)C)c3c2cnn2cc(-c4cccnc4)cc32)CC1` [Example 2, methyl 4-(((1-isopropyl-8-(pyridin-3-yl)-1H-pyrazolo[3,4-d]pyrrolo[1,2-b]pyridazin-3-yl)amino)methyl)piperidine-1-carboxylate], for which the pIC50 was 6.00.

Regarding `CC(C)n1nc(NCC2CCNCC2)c2cnn3cc(-c4ccncc4)cc3c21` [Example 3, 1-isopropyl-N-(piperidin-4-ylmethyl)-8-(pyridin-4-yl)-1H-pyrazolo[3,4-d] pyrrolo[1,2-b]pyridazin-3-amine], the pIC50 was 6.68.

As for `COC(=O)N1CCC(CNc2nn(C(C)C)c3c2cnn2cc(-c4ccncc4)cc32)CC1` [Example 4, methyl 4-(((1-isopropyl-8-(pyridin-4-yl)-1H-pyrazolo[3,4-d]pyrrolo[1,2-b]pyridazin-3-yl)amino)methyl)piperidine-1-carboxylate], the pIC50 was 6.63.

Regarding `CC(C)n1nc(NCC2CCN(C)CC2)c2cnn3cc(-c4ccncc4)cc3c21` [Example 5, 1-isopropyl-N-((1-methylpiperidin-4-yl)methyl)-8-(pyridin-4-yl)-1H-pyrazolo[3,4-d] pyrrolo[1,2-b]pyridazin-3-amine], the pIC50 is 6.84.

Take `COC(=O)NC1CCC(Nc2nn(C(C)C)c3c2cnn2cc(-c4cccnc4)cc32)CC1` (stereo not drawn) [Example 6, methyl (4-((1-isopropyl-8-(pyridin-3-yl)-1H-pyrazolo[3,4-d]pyrrolo[1,2-b]pyridazin-3-yl)amino)cyclohexyl)carbamate]: the pIC50 was 6.16.

Turning to `COC(=O)NC1CCC(Nc2nn(C(C)C)c3c2cnn2cc(-c4ccncc4)cc32)CC1` (stereo not drawn) [Example 7, methyl (4-((1-isopropyl-8-(pyridin-4-yl)-1H-pyrazolo[3,4-d]pyrrolo[1,2-b]pyridazin-3-yl)amino)cyclohexyl)carbamate], the pIC50 was 6.74.

Take `CC(=O)N1CCC(Nc2nn(C(C)C)c3c2cnn2cc(-c4ccncc4)cc32)CC1` [Example 8, 1-(4-((1-isopropyl-8-(pyridin-4-yl)-1H-pyrazolo[3,4-d]pyrrolo[1,2-b]pyridazin-3-yl)amino)piperidin-1-yl)ethan-1-one]: the negative logarithm of the IC50 (pIC50) is 6.86.

For `CC(C)n1nc(NC2CCNCC2)c2cnn3cc(-c4ccncc4)cc3c21` [Example 9, 1-isopropyl-N-(piperidin-4-yl)-8-(pyridin-4-yl)-1H-pyrazolo[3,4-d]pyrrolo[1,2-b] pyridazin-3-amine], the negative logarithm of the IC50 (pIC50) was 6.12.
